How the values were obtained:
[1] = FIH Study Parts A and B combined: adverse events; type: in vivo, human
Excerpt: Preliminary safety data from Part B (monotherapy dose expansion) is consistent with what has been observed in Part A (monotherapy dose escalation).

[2] = GLP cardiovascular telemetry study in beagle dogs with TK phase; type: in vivo, dog
Protocol: A lead-in single-dose TK and tolerability study conducted prior to the telemetry study indicated approximately dose-proportional increase in exposure between 200 and 400 mg/kg in the dog.

[3] = both sexes, beagle, plasma, dog n=8, 400 mg/kg single oral, TK phase

With O=C1CC[C@H](N2Cc3cc(N4CCN(CC5CCN(c6ccc([C@@H]7c8ccc(O)cc8CC[C@@H]7c7ccccc7)cc6)CC5)CC4)ccc3C2=O)C(=O)N1 [Compound A, (S)-3-(5-(4-((1-(4-((1R,2S)-6-hydroxy-2-phenyl-1,2,3,4-tetrahydronaphthalen-1-yl)phenyl)piperidin-4-yl)methyl)piperazin-1-yl)-1-oxoisoindolin-2-yl)piperidine-2,6-dione] the “patients with TEAEs” value ([1]; 143 of 154, as of 6 Jun 2023) was 92.9%, the “Any treatment-emergent AE, Any Grade” value ([1]; Part A + B, N=154) was 143 (92.9) n (%) and the “Any treatment-emergent AE, Grade 3+” value ([1]; Part A + B, N=154) was 40 (26.0) n (%). For the same molecule, the “Any treatment-related AE, Any Grade” value ([1]; Part A + B, N=154) was 114 (74.0) n (%), the “Any treatment-related AE, Grade 3+” value ([1]; Part A + B, N=154) was 12 (7.8) n (%) and the “TEAE Anemia, Any Grade” value ([1]; Part A + B, N=154) was 16 (10.4) n (%). The “TEAE Anemia, Grade 3+” value ([1]; Part A + B, N=154) was 2 (1.3) n (%), the “TEAE Arthralgia, Any Grade” value ([1]; Part A + B, N=154) was 34 (22.1) n (%) and the “TEAE Arthralgia, Grade 3+” value ([1]; Part A + B, N=154) was 2 (1.3) n (%). For the same molecule, the “TEAE Aspartate aminotransferase increased, Any Grade” value ([1]; Part A + B, N=154) was 21 (13.6) n (%), the “TEAE Aspartate aminotransferase increased, Grade 3+” value ([1]; Part A + B, N=154) was 3 (1.9) n (%) and the “TEAE Back pain, Any Grade” value ([1]; Part A + B, N=154) was 21 (13.6) n (%). The “TEAE Back pain, Grade 3+” value ([1]; Part A + B, N=154) was 2 (1.3) n (%), the “TEAE Constipation, Any Grade” value ([1]; Part A + B, N=154) was 41 (26.6) n (%) and the “TEAE Constipation, Grade 3+” value ([1]; Part A + B, N=154) was 0 n (%). For the same molecule, the “TEAE Decreased appetite, Any Grade” value ([1]; Part A + B, N=154) was 24 (15.6) n (%), the “TEAE Decreased appetite, Grade 3+” value ([1]; Part A + B, N=154) was 1 (0.6) n (%) and the “TEAE Diarrhea, Any Grade” value ([1]; Part A + B, N=154) was 19 (12.3) n (%). The “TEAE Diarrhea, Grade 3+” value ([1]; Part A + B, N=154) was 0 n (%), the “TEAE Fatigue, Any Grade” value ([1]; Part A + B, N=154) was 62 (40.3) n (%) and the “TEAE Fatigue, Grade 3+” value ([1]; Part A + B, N=154) was 2 (1.3) n (%). For the same molecule, the “TEAE Headache, Any Grade” value ([1]; Part A + B, N=154) was 25 (16.2) n (%), the “TEAE Headache, Grade 3+” value ([1]; Part A + B, N=154) was 1 (0.6) n (%) and the “TEAE Hot flush, Any Grade” value ([1]; Part A + B, N=154) was 24 (15.6) n (%). For the same molecule, the “TEAE Hot flush, Grade 3+” value ([1]; Part A + B, N=154) was 0 n (%), the “TEAE Hyperglycemia, Any Grade” value ([1]; Part A + B, N=154) was 16 (10.4) n (%) and the “TEAE Hyperglycemia, Grade 3+” value ([1]; Part A + B, N=154) was 0 n (%). The “TEAE Nausea, Any Grade” value ([1]; Part A + B, N=154) was 46 (29.9) n (%), the “TEAE Nausea, Grade 3+” value ([1]; Part A + B, N=154) was 1 (0.6) n (%) and the “TEAE Pain in extremity, Any Grade” value ([1]; Part A + B, N=154) was 17 (11.0) n (%). The “TEAE Pain in extremity, Grade 3+” value ([1]; Part A + B, N=154) was 0 n (%), the “TEAE Vomiting, Any Grade” value ([1]; Part A + B, N=154) was 20 (13.0) n (%) and the “TEAE Vomiting, Grade 3+” value ([1]; Part A + B, N=154) was 0 n (%). For the same molecule, the “TRAE Arthralgia, Any Grade” value ([1]; Part A + B, N=154) was 22 (14.3) n (%), the “TRAE Arthralgia, Grade 3+” value ([1]; Part A + B, N=154) was 0 n (%) and the “TRAE Constipation, Any Grade” value ([1]; Part A + B, N=154) was 16 (10.4) n (%). For the same molecule, the “TRAE Constipation, Grade 3+” value ([1]; Part A + B, N=154) was 0 n (%), the “TRAE Fatigue, Any Grade” value ([1]; Part A + B, N=154) was 48 (31.2) n (%) and the “TRAE Fatigue, Grade 3+” value ([1]; Part A + B, N=154) was 1 (0.6) n (%). The “TRAE Hot flush, Any Grade” value ([1]; Part A + B, N=154) was 20 (13.0) n (%), the “TRAE Hot flush, Grade 3+” value ([1]; Part A + B, N=154) was 0 n (%) and the “TRAE Nausea, Any Grade” value ([1]; Part A + B, N=154) was 36 (23.4) n (%). For the same molecule, the “TRAE Nausea, Grade 3+” value ([1]; Part A + B, N=154) was 1 (0.6) n (%), the TEAE Arthralgia ([1]; Parts A and B, N=154) was 22.1% and the “TEAE Aspartate aminotransferase increased” value ([1]; Parts A and B, N=154) was 13.6%. For the same molecule, the TEAE Back pain ([1]; Parts A and B, N=154) was 13.6%, the TEAE Constipation ([1]; Parts A and B, N=154) was 26.6% and the TEAE Decreased appetite ([1]; Parts A and B, N=154) was 15.6%. It also gave a TEAE Diarrhea ([1]; Parts A and B, N=154) of 12.3%, a TEAE Fatigue ([1]; Parts A and B, N=154) of 40.3% and a TEAE Headache ([1]; Parts A and B, N=154) of 16.2%. For the same molecule, the TEAE Nausea ([1]; Parts A and B, N=154) was 29.9%, the “TEAE Pain in extremity” value ([1]; Parts A and B, N=154) was 11.0% and the TEAE Vomiting ([1]; Parts A and B, N=154) was 13.0%. It also gave a TEAE anemia ([1]; Parts A and B, N=154) of 10.4%, a TEAE hot flush ([1]; Parts A and B, N=154) of 15.6% and a TEAE hyperglycaemia ([1]; Parts A and B, N=154) of 10.4%. The TRAE Arthralgia ([1]; Parts A and B, N=154) was 14.3%, the TRAE Constipation ([1]; Parts A and B, N=154) was 10.4% and the TRAE Fatigue ([1]; Parts A and B, N=154) was 31.2%. For the same molecule, the TRAE Nausea ([1]; Parts A and B, N=154) was 23.4%, the TRAE hot flush ([1]; Parts A and B, N=154) was 13.0% and the Cmax [2, 3] was 16000 ng/mL. The Tmax [2, 3] was 5.1 h, the AUC(0-t) ([2]; both sexes, beagle, plasma, dog n=8, 400 mg/kg single oral, TK phase, read-out: mean AUC0-24) was 272 µg·h/mL and the “QT- or QTc-interval” value ([2]; dog, 400 mg/kg) was “no changes in QT- or QTc-interval”. The “shortening of the PR interval” value ([2]; dog, 400 mg/kg, 1 to 3.25 hours postdose) was 7 ms and the cardiovascular effects ([2]; dog, single oral 90 and 200 mg/kg) was “No Compound A-related effects were noted”.

Reference: US20260069588A1, “VEPDEGESTRANT FOR USE IN TREATING CANCER” (Arvinas Operation, Inc., priority 2022, published 2026)
